Data from patent US10800789B2, “Antiviral compounds” (Gilead Pharmasset LLC, priority 2012, dated 2020).
Read-outs that look alike come from different tables or passages of the source.

Columns and labels:
[1] = tested on: NS5A chimeric genotype 2a JFH-1 replicon with genotype 2b MD2b-1 strain NS5A gene (M31 present); assay: Replicon assay, genotype 2b NS5A chimera; format: cell-based, HCV
Summary of the method: (§1)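 Cells carrying the stable or transiently transfected (Huh-Lunet) dicistronic RLuc replicons received 3-fold serial compound dilutions from 10 mM DMSO stocks. After 72 h, cells were lysed and Renilla luciferase read. DMSO served as the no-inhibition control and ITMN-191 above 100×EC50 as the positive control; EC50 by non-linear regression.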

[2] = tested on: stable HCV 1a RLuc replicon cells (dicistronic genotype 1a H77 replicon); assay: Renilla luciferase HCV replicon reporter assay, genotype 1a; format: cell-based; details: stable 1a H77 RLuc replicon cells
Summary of the method: (§2)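 Antiviral EC50 was determined in HCV replicon cells (stable RLuc lines for 1a H77, 1b Con1, 2a JFH-1 with NS5A L31; J6 NS5A chimera with M31) treated 72 h with compound. Renilla luciferase was then quantified.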

[3] = tested on: NS5A chimeric genotype 1b Con1 replicon with genotype 4a ED43 strain NS5A gene; assay: Replicon assay, genotype 4a NS5A chimera; format: cell-based, HCV
[4] = tested on: NS5A chimeric genotype 2a JFH-1 replicon with genotype 2a J6 strain NS5A gene (M31 present); assay: Replicon assay, genotype 2a J6 NS5A chimera; format: cell-based, HCV
Summary of the method: as §1

[5] = tested on: stable HCV 2a JFH-1 Rluc replicon cells (L31 present in NS5A); assay: Renilla luciferase HCV replicon reporter assay, genotype 2a JFH-1; format: cell-based
Summary of the method: as §2

[6] = tested on: stable HCV 1b RLuc replicon cells (dicistronic genotype 1b Con1 replicon); assay: Renilla luciferase HCV replicon reporter assay, genotype 1b; format: cell-based; details: stable 1b Con1 RLuc replicon cells, 72 hours, read-out: 1b
Summary of the method: as §2

[7] = tested on: NS5A chimeric genotype 1b Con1 replicon with genotype 3a S52 strain NS5A gene; assay: Replicon assay, genotype 3a NS5A chimera; format: cell-based, HCV
[8] = Hepatitis C virus, 2BS, read-out: 2b (s), stably replicating replicon cells (s), activity range
[9] = Hepatitis C virus, read-out: 2b (s) (nM), genotype 2b MD2b-1 NS5A chimeric replicon (M31), stably replicating replicon cells (s)
[10] = Hepatitis C virus, 72 h, activity range
[11] = Hepatitis C virus, read-out: 4a (s) (nM), genotype 4a NS5A chimeric replicon, stable replicon cells (s)
[12] = Hepatitis C virus, read-out: 4a (s), (s), activity range
[13] = Hepatitis C virus, read-out: 2a J6 (t) (nM), genotype 2a J6 NS5A chimeric replicon (M31), transiently transfected (t) into Huh-Lunet cells
[14] = Hepatitis C virus, read-out: 2a J6 (t), transiently transfected (t) into Huh-Lunet cells, activity range
[15] = Hepatitis C virus, read-out: 2a JFH (nM), genotype 2a JFH-1 replicon (L31 in NS5A), stable cells
[16] = Hepatitis C virus, read-out: 2a JFH, stable 2a JFH-1 Rluc replicon cells, L31 in NS5A, activity range
[17] = Hepatitis C virus, read-out: 3a (s) (nM), genotype 3a NS5A chimeric replicon, stable replicon cells (s)
[18] = Hepatitis C virus, read-out: 3a (s), (s), activity range
[19] = Hepatitis C virus, read-out: 2b (t) (nM), genotype 2b MD2b-1 NS5A chimeric replicon (M31), transiently transfected (t)
[20] = Hepatitis C virus, read-out: 2b (t), transiently transfected (t) into Huh-Lunet cells, activity range

Row | Structure (SMILES) | EC50 [1, 8] | EC50 [1, 9] | EC50 ([2]; Hepatitis C virus, 72 h) | EC50 [2, 10] | EC50 [3, 11] | EC50 [3, 12] | EC50 [4, 13] | EC50 [4, 14] | EC50 [5, 15] | EC50 [5, 16] | EC50 ([6]; Hepatitis C virus, 72 h) | EC50 [7, 17] | EC50 [7, 18] | EC50 [1, 19] | EC50 [1, 20] | further results
1 | COC(=O)N[C@H](C(=O)N1[C@@H](C)CC[C@H]1c1nc2ccc3cc4c(cc3c2[nH]1)OCc1cc(-c2cnc([C@@H]3CC[C@H](C)N3C(=O)[C@@H](NC(=O)OC)[C@@H](C)OC(F)F)[nH]2)ccc1-4)[C@@H](C)OC [GN] | 0.1 to 0.999 nM | 0.247 nM | 0.013 nM | < 0.1 nM | 0.016 nM | < 0.1 nM | 0.033 nM | < 0.1 nM | 0.017 nM | < 0.1 nM | 0.023 nM | 0.072 nM | < 0.1 nM |  |  | 
2 | COC(=O)N[C@H](C(=O)N1[C@@H](C)CC[C@H]1c1nc2ccc3cc4c(cc3c2[nH]1)OCc1cc(-c2cnc([C@@H]3C[C@H](F)CN3C(=O)[C@@H](NC(=O)OC)[C@@H](C)OC)[nH]2)ccc1-4)C(C)C [HU] | 1 to 44 nM | 3.56 nM | 0.016 nM | < 0.1 nM | 0.012 nM | < 0.1 nM | 3.17 nM | 1 to 44 nM | 0.026 nM | < 0.1 nM | 0.055 nM | 0.083 nM | < 0.1 nM |  |  | 
3 | COC[C@H]1C[C@@H](c2nc(C3CC3)c(-c3ccc4c(c3)COc3cc5c(ccc6nc([C@@H]7CC[C@H](C)N7C(=O)[C@@H](NC(=O)OC)C(C)C)[nH]c65)cc3-4)[nH]2)N(C(=O)[C@H](NC(=O)OC)c2ccccc2)C1 [FV, Methyl {(1R)-2-[(2S,4S)-2-(4-cyclopropyl-5-{2-[(2S,5S)-1-{(2S)-2-[(methoxycarbonyl)amino]-3-methylbutanoyl}-5-methylpyrrolidin-2-yl]-1,11-dihydroisochromeno[4′,3′:6,7]naphtho[1,2-d]imidazol-9-yl}-1H-imidazol-2-yl)-4-(methoxymethyl)pyrrolidin-1-yl]-2-oxo-1-phenylethyl}carbamate] |  |  |  |  |  |  |  |  |  |  |  |  |  | 0.772 nM | 0.1 to 0.999 nM | EC50 ([1]; read-out: 2b (s), genotype 2b MD2b-1 NS5A chimeric replicon (M31), stably replicating replicon cells (s)): 2.55 nM; EC50 ([1]; read-out: 2b (s), stably replicating replicon cells (s), activity range): 1 to 44 nM; EC50 ([2]; 72 hours): 0.023 nM; EC50 ([2]; 72 hours, activity range): < 0.1 nM; EC50 ([3]; read-out: 4a (s), (s), activity range): < 0.1 nM; EC50 ([3]; read-out: 4a (s), genotype 4a NS5A chimeric replicon, stable replicon cells (s)): 0.029 nM; EC50 ([4]; read-out: 2a J6 (t), genotype 2a J6 NS5A chimeric replicon (M31), transiently transfected (t) into Huh-Lunet cells): 3.78 nM; EC50 ([4]; read-out: 2a J6 (t), transiently transfected (t) into Huh-Lunet cells, activity range): 1 to 44 nM; EC50 ([5]; read-out: 2a JFH, genotype 2a JFH-1 replicon (L31 in NS5A), stable cells): 0.111 nM; EC50 ([5]; read-out: 2a JFH, stable 2a JFH-1 Rluc replicon cells, L31 in NS5A, activity range): 0.1 to 0.999 nM; EC50 [6]: 0.036 nM; EC50 ([7]; read-out: 3a (s), (s), activity range): 1 to 44 nM; EC50 ([7]; read-out: 3a (s), genotype 3a NS5A chimeric replicon, stable replicon cells (s)): 5.25 nM
4 | COC[C@H]1C[C@@H](c2ncc(-c3ccc4c(c3)COc3cc5c(ccc6nc([C@@H]7C[C@H](C)CN7C(=O)[C@@H](NC(=O)OC)[C@@H](C)OC)[nH]c65)cc3-4)[nH]2)N(C(=O)[C@@H](NC(=O)OC)[C@@H](C)OC)C1 [FW, Methyl {(2S,3R)-3-methoxy-1-[(2S,4S)-2-(9-{2-[(2S,4S)-1-[N-(methoxycarbonyl)-O-methyl-L-threonyl]-4-(methoxymethyl)pyrrolidin-2-yl]-1H-imidazol-5-yl}-1,11-dihydroisochromeno[4′,3′:6,7]naphtho[1,2-d]imidazol-2-yl)-4-methylpyrrolidin-1-yl]-1-oxobutan-2-yl}carbamate] | 0.1 to 0.999 nM | 0.773 nM | 0.121 nM | 0.1 to 0.999 nM | 0.08 nM | < 0.1 nM | 0.104 nM | 0.1 to 0.999 nM | 0.054 nM | < 0.1 nM | 0.187 nM | 1.17 nM | 1 to 44 nM | 0.399 nM | 0.1 to 0.999 nM | 
5 | COC(=O)N[C@H](C(=O)N1C[C@@H](C)C[C@H]1c1ncc(-c2ccc3c(c2)COc2cc4c(ccc5nc([C@@H]6C[C@H](C)CN6C(=O)[C@@H](NC(=O)OC)[C@@H](C)OC)[nH]c54)cc2-3)[nH]1)[C@@H](C)OC [EZ, Methyl [(2S,3R)-3-methoxy-1-{(2S,4S)-2-[9-(2-{(2S,4S)-1-[N-(methoxycarbonyl)-O-methyl-L-threonyl]-4-methylpyrrolidin-2-yl}-1H-imidazol-5-yl)-1,11-dihydroisochromeno[4′,3′:6,7]naphtho[1,2-d]imidazol-2-yl]-4-methylpyrrolidin-1-yl}-1-oxobutan-2-yl]carbamate] | 0.1 to 0.999 nM | 0.262 nM | 0.028 nM | < 0.1 nM | 0.025 nM | < 0.1 nM | 0.036 nM | < 0.1 nM | 0.016 nM | < 0.1 nM | 0.084 nM | 0.263 nM | 0.1 to 0.999 nM |  |  | 
